Experimental data from ChEMBL document CHEMBL2163300, “Mitogen-activated protein kinase-activated protein kinase 2 (MAPKAP-K2) as an antiinflammatory target: discovery and in vivo activity of selective pyrazolo[1,5-a]pyrimidine inhibitors using a focused library and structure-based optimization approach” (J Med Chem, 2012).
The source made the active and inactive calls. No cut-off for these calls is given here.

Legend:
[1] = molecular target: T1, MAP kinase-activated protein kinase 2 (Homo sapiens, UniProt P49137); assay: Inhibition of MAPKAP-K2 using KKLNRTLSVA as substrate and [33P]-gamma-ATP after 30 mins by liquid scintillation counter
T1 sequence (P49137 whole entry): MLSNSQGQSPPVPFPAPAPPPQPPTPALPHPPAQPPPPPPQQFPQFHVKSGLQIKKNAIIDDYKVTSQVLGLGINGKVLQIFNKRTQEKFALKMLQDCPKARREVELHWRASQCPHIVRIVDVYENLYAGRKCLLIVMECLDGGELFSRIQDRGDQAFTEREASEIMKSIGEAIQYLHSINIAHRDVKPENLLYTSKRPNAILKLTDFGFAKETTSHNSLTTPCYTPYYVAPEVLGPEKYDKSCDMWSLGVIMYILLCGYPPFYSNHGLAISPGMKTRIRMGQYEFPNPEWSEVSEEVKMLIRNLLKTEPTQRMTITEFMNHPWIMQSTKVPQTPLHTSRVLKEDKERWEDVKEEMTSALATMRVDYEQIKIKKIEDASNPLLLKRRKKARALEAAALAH

[2] = molecular target: Cyclin-dependent kinase 2 (Homo sapiens, UniProt P24941)
Description: Inhibition of CDK2 after 60 mins using [33P]-gamma-ATP by liquid scintillation counter

[3] = molecular target: Serine/threonine-protein kinase Chk2 (Homo sapiens) (UniProt O96017); assay: Inhibition of human CHK2 at 30 uM by Cyclex assay
Serine/threonine-protein kinase Chk2 (Homo sapiens), sequence (O96017 whole entry): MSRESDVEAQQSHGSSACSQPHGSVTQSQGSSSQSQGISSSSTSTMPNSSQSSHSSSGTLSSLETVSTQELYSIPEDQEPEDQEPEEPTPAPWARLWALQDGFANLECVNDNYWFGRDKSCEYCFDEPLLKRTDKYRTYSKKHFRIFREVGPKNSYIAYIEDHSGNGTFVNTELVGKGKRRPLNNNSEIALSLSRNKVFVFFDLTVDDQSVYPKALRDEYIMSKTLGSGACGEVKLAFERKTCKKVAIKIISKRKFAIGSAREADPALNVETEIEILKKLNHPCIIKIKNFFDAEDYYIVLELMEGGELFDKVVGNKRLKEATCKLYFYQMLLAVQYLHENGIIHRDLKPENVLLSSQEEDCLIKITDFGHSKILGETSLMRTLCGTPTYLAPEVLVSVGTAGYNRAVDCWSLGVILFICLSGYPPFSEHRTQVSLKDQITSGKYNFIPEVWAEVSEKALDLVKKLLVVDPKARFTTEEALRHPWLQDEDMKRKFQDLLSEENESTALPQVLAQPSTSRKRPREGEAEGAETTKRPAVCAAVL

[4] = molecular target: T1, MAP kinase-activated protein kinase 2; assay: Inhibition of MAPKAP-K2
[5] = Total clearance in mouse at 1 mg/kg, iv; type: ADME, organism-based; design: dose 1 mg/kg, route intravenous; settings: in vivo
[6] = Half life in mouse at 1 mg/kg, iv; type: ADME, organism-based; design: dose 1 mg/kg, route intravenous; settings: in vivo
[7] = AUC (0 to 24 hrs) in mouse at 1 mg/kg, po; type: ADME, organism-based; design: time < 24 hr, dose 1 mg/kg, route oral; settings: plasma
[8] = Oral bioavailability in mouse at 1 mg/kg; type: ADME, organism-based; settings: in vivo
[9] = tested on: THP-1; assay: Cytotoxicity against human THP1 cells assessed as cell viability by MTS assay; type: cell-based
[10] = molecular target: T1, MAP kinase-activated protein kinase 2; assay: Inhibition of human MAPKAP-K2 in THP1 cells assessed as inhibition of LPS-induced TNFalpha production incubated 1 hr prior to LPS challenge measured 18 hrs post LPS challenge by HTRF assay; type: cell-based, THP-1
[11] = tested on: Mus musculus; assay: Antiinflammatory activity in po dosed C57BL/6 mouse assessed as decrease in LPS-induced serum TNFalpha level administered 30 mins prior to LPS challenge measured 60 mins post LPS challenge by ELISA; type: functional, organism-based
[12] = molecular target: T1, MAP kinase-activated protein kinase 2; assay: Binding affinity to recombinant MAPKAP-K2 using KKKALSRQLSVAA as substrate after 4 mins by […]

SMILES | IC50 [1] [µM] | IC50 [2] [µM] | other results
N[C@H]1CC[C@H](Nc2cc(Nc3ccccc3Cl)n3nccc3n2)CC1 | 0.2 | 0.39 | inhibition [3]: inactive
Fc1ccc(Nc2cc(NC3CCCNC3)nc3ccnn23)cc1Cl (racemic) | 0.4 | 0.7 | 
CCOc1ccc(Nc2c(C)c(N[C@H]3CC[C@H](N)CC3)nc3ccnn23)cc1 | 0.36 |  | inhibition [3]: inactive
CCOc1ccc(Nc2c(C)c(NCCN)nc3ccnn23)cc1 | 2.5 |  | 
N#Cc1c(N)nc2c(c1N)Cc1cc(O)c(O)cc1O2 |  |  | IC50 [4]: 0.13 µM
CCOc1cccc(Nc2c(C)c(N[C@H]3CC[C@H](N)CC3)nc3ccnn23)c1 | 1.4 |  | 
COCCOc1ccc(Nc2c(C)c(N[C@H]3CCCNC3)nc3ccnn23)cc1 | 0.13 | 22 | clearance [5]: 58.3 mL/min/kg; half-life [6]: 1 h; AUC(0-t) at 24 h [7]: 0.316 µM·h; bioavailability [8]: 80%; IC50 [9]: > 100 µM; IC50 [10]: 7.6 µM
Cc1ccc(-n2nc(C(C)(C)C)cc2NC(=O)Nc2ccc(OCCN3CCOCC3)c3ccccc23)cc1 |  |  | Activity [11]: Dose-dependent effect
N#Cc1cnn2c(Nc3ccc(F)c(Cl)c3)cc(N[C@H]3CC[C@H](N)CC3)nc12 | 3.1 | 0.004 | 
Cc1c(N[C@H]2CCCNC2)nc2ccnn2c1Nc1ccc(OCCN2CCOCC2)cc1 | 0.16 | 62 | 
Cc1c(N[C@H]2CC[C@H](N)CC2)nc2ccnn2c1Nc1ccc(F)c(Cl)c1 | 0.4 | 11 | 
Fc1ccc(Nc2cc(NC3CCCCC3)nc3ccnn23)cc1Cl | > 100 |  | 
CCN[C@H]1CC[C@H](Nc2cc(Nc3ccc(F)c(Cl)c3)n3nccc3n2)CC1 | 2 |  | 
N[C@H]1CC[C@H](Nc2cc(Nc3ccc(F)c(Cl)c3)n3ncc(Cl)c3n2)CC1 | 8.1 | 0.003 | 
CC(=O)N[C@H]1CC[C@H](Nc2cc(Nc3ccc(F)c(Cl)c3)n3nccc3n2)CC1 | > 100 |  | 
N[C@H]1CC[C@H](Nc2cc(Nc3ccc(F)c(Cl)c3)n3ncc(Br)c3n2)CC1 | 9.2 | 0.0034 | 
Cc1c(N[C@H]2CC[C@H](N)CC2)nc2ccnn2c1Nc1ccccc1Cl | 1.7 | 6.4 | 
NC1CCCC(Nc2cc(Nc3ccc(F)c(Cl)c3)n3nccc3n2)C1 (centres undefined) | > 100 |  | 
CCOc1ccc(Nc2c(C)c(N[C@H]3CC[C@H](O)CC3)nc3ccnn23)cc1 | 89 |  | 
N[C@H]1CC[C@H](Nc2nc3ccnn3c(Nc3ccc(F)c(Cl)c3)c2-c2ccccc2)CC1 | 1.6 | 6 | 
Fc1ccc(Nc2cc(NCC3CCNCC3)nc3ccnn23)cc1Cl | > 100 |  | 
Cc1c(N[C@H]2CCCNC2)nc2ccnn2c1Nc1ccc2c(cnn2C)c1 | 0.076 | 27 | 
CCc1c(NC2CCCNC2)nc2ccnn2c1Nc1ccc(F)c(Cl)c1 (racemic) | 0.7 | 24 | 
N[C@H]1CC[C@H](Nc2cc(NCC3CCCCC3)n3nccc3n2)CC1 | 11 |  | 
CCOc1ccc(Nc2c(C)c(NCCO)nc3ccnn23)cc1 | 83 |  | 

SMILES | IC50 [1] [µM] | IC50 [2] [µM] | other results
CCOc1ccc(Nc2c(C)c(N(C)C3CCCNC3)nc3ccnn23)cc1 (racemic) | 26 |  | 
CCc1c(N[C@H]2CC[C@H](N)CC2)nc2ccnn2c1Nc1ccccc1Cl | 1.5 | > 300 | 
CC(C)CCNc1cc(N[C@H]2CC[C@H](N)CC2)nc2ccnn12 | 12 |  | 
Cc1cc2nc(N[C@H]3CC[C@H](N)CC3)cc(Nc3ccc(F)c(Cl)c3)n2n1 | > 300 |  | 
CCN(CC)[C@H]1CC[C@H](Nc2cc(Nc3ccc(F)c(Cl)c3)n3nccc3n2)CC1 | > 100 |  | 
CCOc1ccc(Nc2c(C)c(NCCCN)nc3ccnn23)cc1 | 8.7 |  | 
CCCc1c(N[C@H]2CC[C@H](N)CC2)nc2ccnn2c1Nc1ccc(F)c(Cl)c1 | 0.6 | 2.1 | 
CC(=O)c1ccc(-c2ccc(Nc3c(C)c(N[C@H]4CCCNC4)nc4ccnn34)cc2)s1 | 0.057 | 21 | 
Fc1ccc(Nc2cc(NC3CCNCC3)nc3ccnn23)cc1Cl | 25 |  | 
CCOc1ccc(Nc2c(C)c(O[C@H]3CC[C@H](N)CC3)nc3ccnn23)cc1 | 0.57 |  | 
CCOC(=O)c1cccc(Nc2c(C)c(N[C@H]3CC[C@H](N)CC3)nc3ccnn23)c1 | 1.9 |  | 
CCOc1ccc(Nc2c(C)c(NCCCCN)nc3ccnn23)cc1 | 4.1 |  | 
CN(c1ccc(F)c(Cl)c1)c1cc(N[C@H]2CC[C@H](N)CC2)nc2ccnn12 | > 300 |  | 
CCOC(=O)c1ccc(Nc2c(C)c(N[C@H]3CC[C@H](N)CC3)nc3ccnn23)cc1 | 0.7 |  | 
Cc1ccc(-c2ccc3c(ccc4sc5c(c43)NC[C@@H](C)NC5=O)n2)cn1 |  |  | IC50 [12]: 0.005 µM
CCOc1ccc(Nc2c(C)c(N[C@H]3CCCNC3=O)nc3ccnn23)cc1 | > 100 |  | 
Cc1c(N[C@H]2CCCNC2)nc2ccnn2c1Nc1ccc(C(=O)NC2CCCC2)cc1 | 0.14 | 49 | 
N[C@H]1CC[C@H](Nc2cc(NCc3ccccc3)n3nccc3n2)CC1 | 7 |  | 
Nc1ccc(Nc2cc(Nc3ccc(F)c(Cl)c3)n3nccc3n2)cc1 | > 100 |  | 
Cc1c(N[C@H]2CC[C@H](N)CC2)nc2ccnn2c1Nc1ccc(OCc2ccccc2)cc1 | 0.7 |  | 
CC(C)(C)c1cc2nc(N[C@H]3CC[C@H](N)CC3)cc(Nc3ccc(F)c(Cl)c3)n2n1 | > 300 |  | 
Cc1nc2ccc(Nc3c(C)c(N[C@H]4CCCNC4)nc4ccnn34)cc2s1 | 0.054 | 25 | clearance [5]: 58.3 mL/min/kg; half-life [6]: 2.6 h; AUC(0-t) at 24 h [7]: 0.579 µM·h; bioavailability [8]: 79%; IC50 [9]: 54 µM; IC50 [10]: 8.4 µM
Cc1c(NC2CCCNC2)nc2ccnn2c1Nc1ccc(F)c(Cl)c1 (racemic) | 0.51 | 33 | 
Cc1c(N[C@H]2CC[C@H](N)CC2)nc2ccnn2c1Nc1cccc(OCc2ccccc2)c1 | 3 |  | 
CCc1c(N[C@H]2CC[C@H](N)CC2)nc2ccnn2c1Nc1ccc(F)c(Cl)c1 | 0.4 | 3.6 | inhibition [3]: inactive
